# Experimental data published in PubChem BioAssay AID2060906 (Molecular Pharmacology Branch, DTP, NCI, 2025).
# System: 485176-168-R4-J1-PDC complex spheroid growth
# Experiment: Anticancer human tumor 485176-168-R4-J1-PDC patient-derived pancreatic adenocarcinoma cell line growth inhibition [RAS]
# Details: for viability, T/C: stronger effect = lower value
# Procedure, shortened: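 Tumour cells grown as complex spheroids with HUVEC endothelial cells and mesenchymal stem cells, treated with RAS pathway inhibitor combinations. Each agent spans half-log steps from near clinical Cmax, or 10 microM where Cmax is unknown.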
# [1] = curve of first compound, second compound 0.0316 µM
# [2] = curve of first compound, second compound 0.1 µM
# [3] = curve of first compound, second compound 0.316 µM
# [4] = curve of first compound, second compound 1 µM
# [5] = curve of first compound, second compound 3.16 µM
# [6] = curve of first compound, second compound 10 µM
# [7] = second compound 0.0316 µM, first compound 0.0316 µM
# [8] = second compound 0.0316 µM, first compound 0.1 µM
# [9] = second compound 0.0316 µM, first compound 0.316 µM
# [10] = second compound 0.0316 µM, first compound 1 µM
# [11] = second compound 0.1 µM, first compound 0.0316 µM
# [12] = second compound 0.1 µM, first compound 0.1 µM
# [13] = second compound 0.1 µM, first compound 0.316 µM
# [14] = second compound 0.1 µM, first compound 1 µM
# [15] = second compound 0.316 µM, first compound 0.0316 µM
# [16] = second compound 0.316 µM, first compound 0.1 µM
# [17] = second compound 0.316 µM, first compound 0.316 µM
# [18] = second compound 0.316 µM, first compound 1 µM
# [19] = second compound 1 µM, first compound 0.0316 µM
# [20] = second compound 1 µM, first compound 0.1 µM
# [21] = second compound 1 µM, first compound 0.316 µM
# [22] = second compound 1 µM, first compound 1 µM
# [23] = second compound 3.16 µM, first compound 0.0316 µM
# [24] = second compound 3.16 µM, first compound 0.1 µM
# [25] = second compound 3.16 µM, first compound 0.316 µM
# [26] = second compound 3.16 µM, first compound 1 µM
# [27] = second compound 10 µM, first compound 0.0316 µM
# [28] = second compound 10 µM, first compound 0.1 µM
# [29] = second compound 10 µM, first compound 0.316 µM
# [30] = second compound 10 µM, first compound 1 µM
# 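Also: spheroids exposed to compounds for seven days before readout.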
# 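For viability, T/C in this document: luminescence viability expressed relative to DMSO vehicle wells set as 100%.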
structure (smiles),measurement,setting,value
CC(C)n1nc(-c2ccc3oc(N)nc3c2)c2c(N)ncnc21 + CCn1c(-c2cc(N3CCN(C)CC3)cnc2C(C)OC)c2c3cc(ccc31)-c1csc(n1)CC(NC(=O)C1CC1C)C(=O)N1CCCC(N1)C(=O)OCC(C)(C)C2,IC50,"curve of first compound, second compound 0.000949 µM",20.3 nM
same,IC50,"curve of first compound, second compound 0.003 µM",23 nM
same,IC50,"curve of first compound, second compound 0.00949 µM",18.5 nM
same,IC50,"curve of first compound, second compound 0.03 µM",13.8 nM
same,IC50,"curve of first compound, second compound 0.0949 µM",10.9 nM
same,IC50,"curve of first compound, second compound 0.3 µM",9.46 nM
same,"viability, T/C","second compound 0.000949 µM, first compound 0.000316 µM",98.5%
same,"viability, T/C","second compound 0.000949 µM, first compound 0.001 µM",93.7%
same,"viability, T/C","second compound 0.000949 µM, first compound 0.00316 µM",76.8%
same,"viability, T/C","second compound 0.000949 µM, first compound 0.01 µM",70.4%
same,"viability, T/C","second compound 0.000949 µM, first compound 0.0316 µM",37.4%
same,"viability, T/C","second compound 0.000949 µM, first compound 0.1 µM",19.2%
same,"viability, T/C","second compound 0.003 µM, first compound 0.000316 µM",96.8%
same,"viability, T/C","second compound 0.003 µM, first compound 0.001 µM",89.6%
same,"viability, T/C","second compound 0.003 µM, first compound 0.00316 µM",93.3%
same,"viability, T/C","second compound 0.003 µM, first compound 0.01 µM",65.9%
same,"viability, T/C","second compound 0.003 µM, first compound 0.0316 µM",44.4%
same,"viability, T/C","second compound 0.003 µM, first compound 0.1 µM",18.5%
same,"viability, T/C","second compound 0.00949 µM, first compound 0.000316 µM",97.1%
same,"viability, T/C","second compound 0.00949 µM, first compound 0.001 µM",89%
same,"viability, T/C","second compound 0.00949 µM, first compound 0.00316 µM",76.9%
same,"viability, T/C","second compound 0.00949 µM, first compound 0.01 µM",63.9%
same,"viability, T/C","second compound 0.00949 µM, first compound 0.0316 µM",38.4%
same,"viability, T/C","second compound 0.00949 µM, first compound 0.1 µM",19.1%
same,"viability, T/C","second compound 0.03 µM, first compound 0.000316 µM",95.9%
same,"viability, T/C","second compound 0.03 µM, first compound 0.001 µM",81%
same,"viability, T/C","second compound 0.03 µM, first compound 0.00316 µM",63%
same,"viability, T/C","second compound 0.03 µM, first compound 0.01 µM",63.3%
same,"viability, T/C","second compound 0.03 µM, first compound 0.0316 µM",34.8%
same,"viability, T/C","second compound 0.03 µM, first compound 0.1 µM",23.6%
same,"viability, T/C","second compound 0.0949 µM, first compound 0.000316 µM",94.3%
same,"viability, T/C","second compound 0.0949 µM, first compound 0.001 µM",84.8%
same,"viability, T/C","second compound 0.0949 µM, first compound 0.00316 µM",61.5%
same,"viability, T/C","second compound 0.0949 µM, first compound 0.01 µM",57.3%
same,"viability, T/C","second compound 0.0949 µM, first compound 0.0316 µM",30.9%
same,"viability, T/C","second compound 0.0949 µM, first compound 0.1 µM",17.4%
same,"viability, T/C","second compound 0.3 µM, first compound 0.000316 µM",81.1%
same,"viability, T/C","second compound 0.3 µM, first compound 0.001 µM",77%
same,"viability, T/C","second compound 0.3 µM, first compound 0.00316 µM",68.2%
same,"viability, T/C","second compound 0.3 µM, first compound 0.01 µM",50.2%
same,"viability, T/C","second compound 0.3 µM, first compound 0.0316 µM",25.9%
same,"viability, T/C","second compound 0.3 µM, first compound 0.1 µM",16.1%
CCN1CCN(Cc2ccc(Nc3ncc(F)c(-c4cc(F)c5nc(C)n(C(C)C)c5c4)n3)nc2)CC1,"viability, T/C",compound 0.00316 µM,92.9% [middle of 4 runs]
same,"viability, T/C",compound 0.01 µM,88.4% [middle of 4 runs]
same,"viability, T/C",compound 0.0316 µM,100% [middle of 4 runs]
same,"viability, T/C",compound 0.316 µM,75.5% [middle of 4 runs]
same,"viability, T/C",compound 1 µM,67.7% [middle of 4 runs]
same,IC50,curve of compound,> 1000 nM
O=C(c1ccc(F)c(F)c1Nc1ccc(I)cc1F)N1CC(O)([C@@H]2CCCCN2)C1 + C#Cc1c(F)ccc2cc(O)cc(-c3ncc4c(N5CC6CCC(C5)N6)nc(OCC56CCCN5CC(F)C6)nc4c3F)c12,IC50,[1],358 nM
same,IC50,[2],267 nM
same,IC50,[3],231 nM
same,IC50,[4],31 nM
same,IC50,[5],88.8 nM
same,IC50,[6],53.9 nM
same,"viability, T/C","second compound 0.0316 µM, first compound 0.00316 µM",80.3%
same,"viability, T/C","second compound 0.0316 µM, first compound 0.01 µM",79.3%
same,"viability, T/C",[7],69.7%
same,"viability, T/C",[8],72.4%
same,"viability, T/C",[9],50.5%
same,"viability, T/C",[10],41.1%
same,"viability, T/C","second compound 0.1 µM, first compound 0.00316 µM",79%
same,"viability, T/C","second compound 0.1 µM, first compound 0.01 µM",82.2%
same,"viability, T/C",[11],72.6%
same,"viability, T/C",[12],62.5%
same,"viability, T/C",[13],48.2%
same,"viability, T/C",[14],37.5%
same,"viability, T/C","second compound 0.316 µM, first compound 0.00316 µM",88%
same,"viability, T/C","second compound 0.316 µM, first compound 0.01 µM",72.3%
same,"viability, T/C",[15],71.1%
same,"viability, T/C",[16],56%
same,"viability, T/C",[17],45.4%
same,"viability, T/C",[18],41%
same,"viability, T/C","second compound 1 µM, first compound 0.00316 µM",96%
same,"viability, T/C","second compound 1 µM, first compound 0.01 µM",77.7%
same,"viability, T/C",[19],49.5%
same,"viability, T/C",[20],47.3%
same,"viability, T/C",[21],58.2%
same,"viability, T/C",[22],38.9%
same,"viability, T/C","second compound 3.16 µM, first compound 0.00316 µM",90.4%
same,"viability, T/C","second compound 3.16 µM, first compound 0.01 µM",86.4%
same,"viability, T/C",[23],64.4%
same,"viability, T/C",[24],50.6%
same,"viability, T/C",[25],38.3%
same,"viability, T/C",[26],39.2%
same,"viability, T/C","second compound 10 µM, first compound 0.00316 µM",98.3%
same,"viability, T/C","second compound 10 µM, first compound 0.01 µM",60.1%
same,"viability, T/C",[27],57.8%
same,"viability, T/C",[28],51%
same,"viability, T/C",[29],46.8%
same,"viability, T/C",[30],29.9%
C[C@@H](NC(=O)c1ncnc(N)c1Cl)c1ncc(C(=O)Nc2cc(C(F)(F)F)c(Cl)cn2)s1 + C#Cc1c(F)ccc2cc(O)cc(-c3ncc4c(N5CC6CCC(C5)N6)nc(OCC56CCCN5CC(F)C6)nc4c3F)c12,IC50,[1],> 10000 nM
same,IC50,[2],> 10000 nM
same,IC50,[3],> 10000 nM
same,IC50,[4],> 10000 nM
same,IC50,[5],> 10000 nM
same,IC50,[6],> 10000 nM
same,"viability, T/C",[7],123%
same,"viability, T/C",[8],101%
same,"viability, T/C",[9],102%
same,"viability, T/C",[10],78.9%
same,"viability, T/C","second compound 0.0316 µM, first compound 3.16 µM",87.8%
same,"viability, T/C","second compound 0.0316 µM, first compound 10 µM",58.8%
same,"viability, T/C",[11],106%
same,"viability, T/C",[12],100%
same,"viability, T/C",[13],86.7%
same,"viability, T/C",[14],81.7%
same,"viability, T/C","second compound 0.1 µM, first compound 3.16 µM",73.5%
same,"viability, T/C","second compound 0.1 µM, first compound 10 µM",62.1%
same,"viability, T/C",[15],97.2%
same,"viability, T/C",[16],86.3%
same,"viability, T/C",[17],73%
same,"viability, T/C",[18],84.1%
same,"viability, T/C","second compound 0.316 µM, first compound 3.16 µM",69.9%
same,"viability, T/C","second compound 0.316 µM, first compound 10 µM",63%
same,"viability, T/C",[19],84.8%
same,"viability, T/C",[20],81.8%
same,"viability, T/C",[21],101%
same,"viability, T/C",[22],75.3%
same,"viability, T/C","second compound 1 µM, first compound 3.16 µM",74.7%
same,"viability, T/C","second compound 1 µM, first compound 10 µM",57.2%
same,"viability, T/C",[23],103%
same,"viability, T/C",[24],96.8%
same,"viability, T/C",[25],94.7%
same,"viability, T/C",[26],80.5%
same,"viability, T/C","second compound 3.16 µM, first compound 3.16 µM",69.8%
same,"viability, T/C","second compound 3.16 µM, first compound 10 µM",63%
same,"viability, T/C",[27],97.6%
same,"viability, T/C",[28],87%
same,"viability, T/C",[29],83.6%
same,"viability, T/C",[30],80.3%
same,"viability, T/C","second compound 10 µM, first compound 3.16 µM",75%
same,"viability, T/C","second compound 10 µM, first compound 10 µM",58.1%
